Literature values as cited in patent US20240360088A1, “WATER-SOLUBLE NERVE DYES FOR IN VIVO NERVE-SPECIFIC IMAGING” (Oregon Health & Science University, priority 2021, published 2024).

Test system: rodent nerves
Conditions: for nerve specificity: direct and systemic administration, preclinical

Compound | fluorescence signal for real time imaging (co-solvent formulation as vehicle for intravenous injection) | nerve specificity | nerve-specific signal (systemic administration)
CCNc1cc2oc3cc(=[N+](CC)CC)ccc-3nc2cc1C [Comparative Example No. 1, 3-(diethyl-14-azaneylidene)-N-ethyl-8-methyl-3H-phenoxazin-7-amine] | adequate fluorescence signal | high nerve specificity | –
CC/N=c1/cc2oc3cc(NCC)c(C)cc3nc-2cc1C [Oxazine 4] | – | high nerve specificity | nerve-specific signal following systemic administration in all rodent nerves
